Measured values: patent US9145415B2, “Nitrogen-containing heterocyclic compound or salt thereof” (FUJIFILM Corporation, priority 2012, dated 2015)
Read-outs that look alike come from different tables or passages of the source.

Columns and labels:
[1] = target: T1, human FLT3 protein (FLT3 (WT)) (Homo sapiens, UniProt P36888); assay: FLT3 inhibition test (FLT3 enzyme inhibition, time-resolved fluorescence of substrate peptide phosphorylation); format: biochemical; conditions: read-out: FLT3 (WT) enzyme inhibition activity
T1 construct: human FLT3 protein (intracellular region, 564 to 993 aa); GST; purchased Carna Biosciences; host or cells: baculovirus expression system
T1 sequence (P36888 564-993): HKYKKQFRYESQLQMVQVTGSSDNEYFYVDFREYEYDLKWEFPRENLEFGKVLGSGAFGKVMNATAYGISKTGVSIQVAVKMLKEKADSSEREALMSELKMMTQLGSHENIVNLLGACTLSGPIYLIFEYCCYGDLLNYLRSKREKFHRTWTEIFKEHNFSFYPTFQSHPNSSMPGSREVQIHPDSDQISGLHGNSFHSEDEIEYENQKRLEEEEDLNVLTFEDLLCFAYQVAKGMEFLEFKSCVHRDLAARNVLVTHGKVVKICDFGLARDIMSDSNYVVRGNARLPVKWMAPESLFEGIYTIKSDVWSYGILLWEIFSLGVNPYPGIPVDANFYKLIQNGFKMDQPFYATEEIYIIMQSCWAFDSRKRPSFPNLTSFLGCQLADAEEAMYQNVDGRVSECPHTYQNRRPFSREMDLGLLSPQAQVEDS
In short: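 Wild-type human FLT3 (1.2 μg) pre-incubated with compound 15 min at 25° C in 100 mM HEPES pH 7.5, 10 mM MgCl2, 25 mM NaCl, 1 mM DTT. Reaction started with substrate peptide and ATP (final 50 μM), run 30 min at 25° C; phosphorylation read by time-resolved fluorescence.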

[2] = system: MV4-11 cells; assay: Leukemia cell proliferation inhibition test (ATPlite), MV4-11; format: cell-based; conditions: Homo sapiens, read-out: MV4-11 cell proliferation inhibition effect
In short: (§1)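 Molm-13 or MV4-11 cells in RPMI with 10% FBS and pen/strep, seeded at 10,000 cells per well, were exposed to serially diluted compound for 72 hours at 37° C, 5% CO2. Total cellular ATP was read by luciferase luminescence. GI50 came from sigmoid fits against the 0.1% DMSO control, in duplicate.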

[3] = system: Molm-13 cells; assay: Leukemia cell proliferation inhibition test (ATPlite), Molm-13; format: cell-based; conditions: Homo sapiens, read-out: MOLM13 cell proliferation inhibition effect
In short: as §1

[4] = GST-fused human FLT3 (564 to 993 aa), ATP 50 μM
[5] = MV4-11, 72 h, MV4-11, 72 hours culture, ATPlite, GI50 per method
[6] = MOLM-13, 72 h, Molm-13, 72 hours culture, ATPlite, GI50 per method

| IC50 ([1]; FLT3 (WT)) [nM] | IC50 ([2]; MV4-11, MV4-11 cell) [nM] | IC50 ([3]; MOLM-13, MOLM13 cell) [nM] | IC50 [1, 4] [nM] | IC50 [2, 5] [nM] | IC50 [3, 6] [nM] | SMILES |
| --- | --- | --- | --- | --- | --- | --- |
| < 10 | < 10 | < 10 | – | – | – | CCCNc1nc(Nc2ccc3cnn(CCOC)c3c2)ncc1C#CCCCNC(=O)[C@H](C)N(C)C(=O)/C=C/CN(C)C [Compound 22-11] |
| – | – | – | < 10 | < 10 | 10 to 100 | CCCNc1nc(Nc2cccc(Cl)c2)ncc1C#CCCCNC(=O)[C@H](C)N(C)C(=O)/C=C/CN(C)C [Compound 12-2, (S,E)-N-(1-((5-(2-((3-chlorophenyl)amino)-4-(propylamino)pyrimidin-5-yl)-4-pentyn-1-yl)amino)-1-oxopropan-2-yl)-4-(dimethylamino)-N-methyl-2-butenamide] |
| – | – | – | < 10 | < 10 | < 10 | C[C@@H](C(=O)NCCCC#Cc1cnc(Nc2ccc3[nH]ncc3c2)nc1NC1CC1)N(C)C(=O)/C=C/CN(C)C [Compound 10-72] |
| – | – | – | < 10 | < 10 | < 10 | CCCNc1nc(Nc2cccc(F)c2)ncc1C#CC(C)(C)CCNC(=O)[C@H](C)N(C)C(=O)/C=C/CN(C)C [Compound 7-28] |
| – | – | – | < 10 | < 10 | < 10 | CCCNc1nc(Nc2ccc(C#N)cc2)ncc1C#CCCCNC(=O)CN(CC)C(=O)/C=C/CN(C)C [Compound 7-39] |
| – | – | – | < 10 | < 10 | < 10 | CCCNc1nc(Nc2ccc3nnccc3c2)ncc1C(=O)Nc1cccc(NC(=O)[C@H](C)N(C)C(=O)/C=C/CN(C)C)c1 [Compound 6-11, (S,E)-2-(Cinnolin-6-ylamino)-N-(3-(2-(4-(dimethylamino)-N-methyl-2-butenamido)propanamido)phenyl)-4-(propylamino)pyrimidine-5-carboxamide] |
| – | – | – | < 10 | < 10 | < 10 | CCCNc1nc(Nc2ccc(C(N)=O)cc2)ncc1C(=O)Nc1cccc(NC(=O)[C@H](C)N(C)C(=O)/C=C/CNC(C)(C)C)c1 [Compound 4-4] |
| – | – | – | 10 to 100 | < 10 | < 10 | CCCNc1nc(Nc2ccc(C(=O)N(C)C)cc2)ncc1C#CCCCNC(=O)CN(C)C(=O)/C=C/CN(C)C [Compound 7-16] |
| – | – | – | < 10 | < 10 | 10 to 100 | COCCCNc1nc(Nc2ccc(F)nc2)ncc1C#CCCCNC(=O)[C@H](C)N(C)C(=O)/C=C/CN(C)C [Compound 10-30] |
| – | – | – | < 10 | 10 to 100 | 10 to 100 | C[C@@H](C(=O)NCCCC#Cc1cnc(Nc2ccc(C#N)cc2)nc1-n1cncn1)N(C)C(=O)/C=C/CN(C)C [Compound 20-4] |
| < 10 | < 10 | < 10 | – | – | – | CCCNc1nc(Nc2cnc3c(c2)c(C)nn3CCOC)ncc1C#CCCCNC(=O)[C@H](C)N(C)C(=O)/C=C/CN(C)C [Compound 22-41] |
| – | – | – | < 10 | > 1000 | > 1000 | CCCNc1nc(Nc2ccc(C(N)=O)cc2)ncc1C(=O)Nc1ccc2nc(CNC(=O)/C=C/CN(C)C)[nH]c2c1 [Compound 3-18] |
| – | – | – | < 10 | < 10 | < 10 | CCCNc1nc(Nc2cccc(F)c2)ncc1C#CCCCNC(=O)[C@@H]1C[C@@H](OC)CN1C(=O)/C=C/CN(C)C [Compound 7-58] |
| – | – | – | < 10 | < 10 | < 10 | CCCNc1nc(Nc2cccc(C#N)c2)ncc1C#CCCCNC(=O)[C@H](C)N(C)C(=O)/C=C/CN(C)C [Compound 7-3, (S,E)-N-(1-((5-(2-((3-Cyanophenyl)amino)-4-(propylamino)pyrimidin-5-yl)-4-pentyn-1-yl)amino)-1-oxopropan-2-yl)-4-(dimethylamino)-N-methyl-2-butenamide] |
| – | – | – | < 10 | < 10 | < 10 | CC(C)CNc1nc(Nc2ccc(C#N)cc2)ncc1C#CCCCNC(=O)[C@H](C)N(C)C(=O)/C=C/CN(C)C [Compound 10-24] |
| – | – | – | < 10 | < 10 | < 10 | COCCCNc1nc(Nc2ccc3cn[nH]c3c2)ncc1C#CCCCNC(=O)[C@H](C)N(C)C(=O)/C=C/CN(C)C [Compound 10-65] |

| IC50 ([1]; FLT3 (WT)) [nM] | IC50 ([2]; MV4-11, MV4-11 cell) [nM] | IC50 ([3]; MOLM-13, MOLM13 cell) [nM] | IC50 [1, 4] [nM] | IC50 [2, 5] [nM] | IC50 [3, 6] [nM] | SMILES |
| --- | --- | --- | --- | --- | --- | --- |
| 10 to 100 | 10 to 100 | 10 to 100 | – | – | – | CCCNc1nc(Nc2ccc(-n3nccn3)cc2)ncc1C#CCCCNC(=O)[C@H](C)N(C)C(=O)/C=C/CN(C)C [Compound 22-16] |
| – | – | – | < 10 | < 10 | < 10 | CCCNc1nc(Nc2cccc(F)c2)ncc1C#CCCCNC(=O)[C@@H]1C[C@H](O)CN1C(=O)/C=C/CN(C)C [Compound 7-67] |
| – | – | – | < 10 | 10 to 100 | 10 to 100 | CCCNc1nc(NCCc2ccncc2)ncc1C(=O)NCCC(CC)NC(=O)CNC(=O)/C=C/CN(C)C (stereo not drawn) [Compound 1-11] |
| – | – | – | < 10 | < 10 | < 10 | CCCNc1nc(Nc2cccc(F)c2)ncc1C(=O)Nc1cccc(NC(=O)[C@H](C)N(C)C(=O)/C=C/CN(C)C)c1 [Compound 6-4, (S,E)-N-(3-(2-(4-(dimethylamino)-N-methyl-2-butenamido)propanamido)phenyl)-2-((3-fluorophenyl)amino)-4-(propylamino)pyrimidine-5-carboxamide] |
| – | – | – | 10 to 100 | 10 to 100 | 10 to 100 | C=CC(=O)NCCCNC(=O)c1cnc(NCCc2ccncc2)nc1NCCC [Compound 2-21] |
| – | – | – | < 10 | < 10 | < 10 | CCCNc1nc(Nc2ccc(C#N)cc2)ncc1C#CCCCNC(=O)CNC(=O)/C=C/CN(C)C [Compound 7-57] |
| < 10 | < 10 | < 10 | – | – | – | CCCNc1nc(Nc2ccc(-n3ccnn3)cc2)ncc1C#CCCCNC(=O)[C@H](C)N(C)C(=O)/C=C/CN(C)C [Compound 22-17] |
| – | – | – | < 10 | < 10 | < 10 | CCCN(CCC)c1nc(Nc2ccc(C#N)cc2)ncc1C#CCCCNC(=O)[C@H](C)N(C)C(=O)/C=C/CN(C)C [Compound 10-16] |
| 10 to 100 | 10 to 100 | 100 to 1000 | – | – | – | CCCNc1nc(Nc2cccc3[nH]ncc23)ncc1C#CCCCNC(=O)[C@H](C)N(C)C(=O)/C=C/CN(C)C [Compound 21-54] |
| – | – | – | < 10 | < 10 | 10 to 100 | CCCNc1nc(Nc2cccc(F)c2)ncc1C#Cc1ccccc1CNC(=O)[C@H](C)N(C)C(=O)/C=C/CN(C)C [Compound 7-25] |
| – | – | – | < 10 | < 10 | < 10 | C[C@@H](C(=O)NCCCC#Cc1cnc(Nc2cccc(F)c2)nc1NCCCN(C)C)N(C)C(=O)/C=C/CN(C)C [Compound 10-4] |
| – | – | – | < 10 | < 10 | < 10 | CCNc1nc(Nc2ccc3cn[nH]c3c2)ncc1C#CCCCNC(=O)[C@@H]1CCCN1C(=O)/C=C/CN(C)C [Compound 10-70] |
| – | – | – | < 10 | < 10 | < 10 | CCCNc1nc(Nc2ccc(C#N)cc2)ncc1C#C[C@@H]1CCC[C@H](NC(=O)CN(C)C(=O)/C=C/CN(C)C)C1 [Compound 13-6] |
| – | – | – | < 10 | < 10 | < 10 | CCCNc1nc(Nc2ccnc(F)c2)ncc1C#CCCCNC(=O)[C@H](CC)N(C)C(=O)/C=C/CN(C)C [Compound 9-18] |
| – | – | – | < 10 | < 10 | < 10 | COc1ccc(Nc2nc(Nc3ccc(F)cc3)ncc2C#CCCCNC(=O)CN(C)C(=O)/C=C/CN(C)C)cc1 [Compound 10-19] |
